The source of these data is patent US8278461B2, “Stable amorphous form of carvedilol dihydrogen phosphate with stabilizer” (Lupin Limited, priority 2007, dated 2012).

For series [1] the following is noted: amorphous form obtained by the process of Indian application 292/KOL/2007; cited from earlier work.
Series [2] can be described thus: Glass transition temperature of the amorphous form. The class given is physicochemical. As for the experimental part: We have filed an Indian patent application 292/KOL/2007 dated 27 Feb. 2007 in Indian Patent Office on amorphous form of carvedilol dihydrogen phosphate and the process for its preparation. The amorphous form obtained by the process described in this application has glass transition temperature below 60° C. The amorphous solids in general having low glass transition temperature not only create complications during formulation but also has stability related problems on storage. The glass transition temperature is the temperature, below which the physical properties of amorphous materials vary in a manner similar to those of a crystalline phase (glassy state), and above which amorphous materials behave like liquids (rubbery state). A materials glass transition temperature is the temperature below which molecules have little relative mobility. Thus, there exist a need to develop stable amorphous form of carvedilol dihydrogen phosphate which have improved characteristics. […] The amorphous carvedilol obtained without stabiliser having glass transition temperature 55-56° C. while the stable amorphous form of the present invention has glass transition temperature in the range between 76 to 185° C. The phosphorous content of the stable amorphous form of the present invention is between 18-20% on anhydrous basis.

Like-named read-outs stand apart in the source and are kept apart here.

`COc1ccccc1OCCNCC(O)COc1cccc2[nH]c3ccccc3c12.O=P(O)(O)O` (centres unmarked) [carvedilol dihydrogen phosphate]: the glass transition temperature entry was “below 60 °C” in series [1] and 55-56 °C in series [2].
